# Assay results: US20250230193A1, “CYCLIC COMPOUND HAVING SELECTIVE KRAS INHIBITORY EFFECT ON HRAS AND NRAS” (CHUGAI SEIYAKU KABUSHIKI KAISHA, priority 2022, published 2025)
# *1 amine or outer side, *2 acyl side, *3 side chain or, on linkers, in order; H or OH if unused. Where a SMILES comes first, the peptide text is derived from it. Bridges are numbered along the chain shown (N, C = ends). [ ]: non-standard residue; d: D form. The star is where a group is joined. hPhe(3,5-F2-4-CF3) = N[C@@H](CCc1cc(F)c(C(F)(F)F)c(F)c1)C(=O)O; hPhe(3-Cl-4-CF3) = N[C@@H](CCc1ccc(C(F)(F)F)c(Cl)c1)C(=O)O; NPrPhe(4-CF3) = CCCN[C@@H](Cc1ccc(C(F)(F)F)cc1)C(=O)O; NEtPhe(4-Me) = CCN[C@@H](Cc1ccc(C)cc1)C(=O)O; NMeGly(cPent) = CN[C@H](C(=O)O)C1CCCC1; X13 = CCC[C@](C)(N[*:1])C(=O)[*:2]; NMeD = CN[C@@H](CC(=O)O)C(=O)O; NMeL = CN[C@@H](CC(C)C)C(=O)O; Morpholide = C1CN(*)CCO1; Ac5c = NC1(C(=O)O)CCCC1; Sar = CNCC(=O)O
# Columns and labels:
# [1] = target: GDP-bound NRAS wild-type protein (Homo sapiens, UniProt P01111); assay: Binding to NRAS by surface plasmon resonance (SPR), Single Cycle Kinetics
# Sequence of GDP-bound NRAS wild-type protein (P01111 whole entry): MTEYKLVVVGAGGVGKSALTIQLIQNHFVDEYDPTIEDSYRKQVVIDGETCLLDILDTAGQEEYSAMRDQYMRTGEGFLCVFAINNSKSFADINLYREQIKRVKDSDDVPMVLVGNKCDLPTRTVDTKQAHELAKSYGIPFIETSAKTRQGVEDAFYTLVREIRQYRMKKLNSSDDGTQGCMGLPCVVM
# [2] = target: GDP-bound HRAS wild-type protein (Homo sapiens, UniProt P01112); assay: Binding to HRAS by surface plasmon resonance (SPR), Single Cycle Kinetics
# Sequence of GDP-bound HRAS wild-type protein (P01112 whole entry): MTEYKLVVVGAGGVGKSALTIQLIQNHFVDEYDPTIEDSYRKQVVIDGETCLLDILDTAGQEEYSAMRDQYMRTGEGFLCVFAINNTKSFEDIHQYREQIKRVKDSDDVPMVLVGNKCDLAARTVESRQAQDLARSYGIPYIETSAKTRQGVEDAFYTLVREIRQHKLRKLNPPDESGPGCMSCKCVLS
# [3] = KD ratio, GDP-bound NRAS wild-type vs GDP-bound KRAS wild-type, SPR
# [4] = KD ratio, GDP-bound HRAS wild-type vs GDP-bound KRAS wild-type, SPR
smiles,measurement,setting,value
CCC[C@H]1C(=O)N[C@@H]([C@@H](C)CC)C(=O)N(C)CC(=O)N(C)[C@H]2C/C=C\CCN(C2=O)[C@@H](CC2CCC(F)(F)CC2)C(=O)N(C)CC(=O)N[C@@H](CCc2ccc(C(F)(F)F)c(OC)c2)C(=O)N2C[C@@H](C)C[C@H]2C(=O)NC2(CC(C)(C)C2)C(=O)N(C)[C@@H](C(CC)CC)C(=O)N(C)[C@H](C(=O)N(C)C)CC(=O)N1C [PP2497],NRAS/KRAS (ratio of KD value with respect to NRAS to KD value with respect to KRAS),"[1]; SPR, GDP-bound NRAS wild-type vs GDP-bound KRAS wild-type",A (a compound having 10 or more and less than 20 is denoted as A)
same,HRAS/KRAS (ratio of KD value with respect to HRAS to KD value with respect to KRAS),"[2]; SPR, GDP-bound HRAS wild-type vs GDP-bound KRAS wild-type",A (a compound having 10 or more and less than 20 is denoted as A)
CCO[C@@H]1C[C@H]2C(=O)NC3(CCC3)C(=O)N(C)[C@@H](C3CCCC3)C(=O)N(C)[C@H](C(=O)N(C)C)CC(=O)N(C)[C@@H](CC)C(=O)N[C@@H]([C@@H](C)CC)C(=O)N(C)CC(=O)N(C)[C@H]3CCCCCN(C3=O)[C@@H](Cc3ccc(C(F)(F)F)cc3)C(=O)N(C)CC(=O)N[C@@H](CCc3cc(Cl)c(C(F)(F)F)c(Cl)c3)C(=O)N2C1 [PP0989],NRAS/KRAS (ratio of KD value with respect to NRAS to KD value with respect to KRAS),[1]; [3],B (a compound having 3 or more and less than 10 is denoted as B)
same,HRAS/KRAS (ratio of KD value with respect to HRAS to KD value with respect to KRAS),[2]; [4],B (a compound having 3 or more and less than 10 is denoted as B)
"CCCN1C(=O)CN(C)C(=O)CN(C)C(=O)[C@H]([C@@H](C)CC)NC(=O)[C@H](CC(C)C)N(C)C(=O)C[C@@H](C(=O)N(C)C)N(C)C(=O)[C@H](C2CCCC2)N(C)C(=O)[C@](C)(CCC)NC(=O)[C@@H]2CCCN2C(=O)[C@H](CCc2cc(F)c(C(F)(F)F)c(F)c2)NC(=O)CN(C)C(=O)[C@@H]1Cc1ccc(C(F)(F)F)cc1 [PP0737] ([NMeL]I[Sar][Sar][NPrPhe(4-CF3)][Sar][hPhe(3,5-F2-4-CF3)]P[X13][NMeGly(cPent)][NMeD]-NMe2; lactam N-11)",NRAS/KRAS (ratio of KD value with respect to GDP-bound NRAS wild-type protein to KD value with respect to KRAS),"[1]; KD ratio NRAS/KRAS, SPR",B (a compound having 3 or more and less than 10 is denoted as B)
same,HRAS/KRAS (ratio of KD value with respect to GDP-bound HRAS wild-type protein to KD value with respect to KRAS),"[2]; KD ratio HRAS/KRAS, SPR",C (A compound having a KD ratio of 0.1 or more and less than 3 is denoted as C)
CCO[C@@H]1C[C@H]2C(=O)NC3(CC(C)(C)C3)C(=O)N(C)[C@@H](C3CCCC3)C(=O)N(C)[C@H](C(=O)N(C)C)CC(=O)N(C)[C@@H](CC3CCC3)C(=O)N[C@@H]([C@@H](C)CC)C(=O)N(C)CC(=O)N(C)[C@H]3C/C=C\CCN(C3=O)[C@@H](Cc3ccc(C(F)(F)F)cc3)C(=O)N(C)CC(=O)N[C@@H](CCc3cc(F)c(Cl)c(F)c3)C(=O)N2C1 [PP1762],NRAS/KRAS (ratio of KD value for NRAS to KD value for KRAS),[1]; [3],A (a compound having 10 or more and less than 20 is denoted as A)
same,HRAS/KRAS (ratio of KD value for HRAS to KD value for KRAS),[2]; [4],A (a compound having 10 or more and less than 20 is denoted as A)
CCC[C@H]1C(=O)N[C@@H]([C@@H](C)CC)C(=O)N(C)CC(=O)N(C)[C@H]2C/C=C\CCN(C2=O)[C@@H](Cc2ccc(C(F)(F)F)cc2)C(=O)N(C)CC(=O)N[C@@H](CCc2ccc(C(F)(F)F)c(Cl)c2)C(=O)N2CCCC[C@H]2C(=O)NC2(CC(C)(C)C2)C(=O)N(C)[C@@H](C(CC)CC)C(=O)N(C)[C@H](C(=O)N(C)C)CC(=O)N1C [PP2928],NRAS/KRAS (ratio of KD value with respect to GDP-bound NRAS wild-type protein to KD value with respect to KRAS),"[1]; KD ratio NRAS/KRAS, class symbols",AA (a compound having 20 or more is denoted as AA)
same,HRAS/KRAS (ratio of KD value with respect to GDP-bound HRAS wild-type protein to KD value with respect to KRAS),"[2]; KD ratio HRAS/KRAS, class symbols",A (a compound having 10 or more and less than 20 is denoted as A)
CCO[C@@H]1C[C@H]2C(=O)NC3(CCC3)C(=O)N(C)[C@@H](C3CCCC3)C(=O)N(CC)[C@H](C(=O)N(C)C)CC(=O)N(C)[C@@H](CC)C(=O)N[C@@H]([C@@H](C)CC)C(=O)N(C)CC(=O)N(C)[C@H]3CCCCCN(C3=O)[C@@H](Cc3ccc(C(F)(F)F)cc3)C(=O)N(C)CC(=O)N[C@@H](CCc3cc(F)c(C(F)(F)F)c(F)c3)C(=O)N2C1 [PP0633],NRAS/KRAS (ratio of KD value with respect to GDP-bound NRAS wild-type protein to KD value with respect to KRAS),"[1]; KD ratio NRAS/KRAS, SPR",B (a compound having 3 or more and less than 10 is denoted as B)
same,HRAS/KRAS (ratio of KD value with respect to GDP-bound HRAS wild-type protein to KD value with respect to KRAS),"[2]; KD ratio HRAS/KRAS, SPR",B (a compound having 3 or more and less than 10 is denoted as B)
CC[C@H](C)[C@@H]1NC(=O)[C@H](CC(C)C)N(C)C(=O)C[C@@H](C(=O)N2CCOCC2)N(C)C(=O)[C@H](CC(C)C)N(C)C(=O)C2(CCCC2)NC(=O)[C@@H]2CCCN2C(=O)[C@H](CCc2ccc(C(F)(F)F)c(Cl)c2)NC(=O)CN(C)C(=O)[C@H](Cc2ccc(C)cc2)N(CC)C(=O)CN(C)C(=O)CN(C)C1=O [PP0045] ([NMeL]I[Sar][Sar][NEtPhe(4-Me)][Sar][hPhe(3-Cl-4-CF3)]P[Ac5c][NMeL][NMeD]-Morpholide; lactam N-11),NRAS/KRAS (ratio of KD for GDP-bound NRAS wild-type to KD for KRAS),"[1]; KD ratio NRAS/KRAS, SPR",C (A compound having a KD ratio of 0.1 or more and less than 3 is denoted as C)
same,HRAS/KRAS (ratio of KD for GDP-bound HRAS wild-type to KD for KRAS),"[2]; KD ratio HRAS/KRAS, SPR",C (A compound having a KD ratio of 0.1 or more and less than 3 is denoted as C)
